Assay [1] has as its system nematodes. Description: Relative nematocidal activity (other assays, Table 2). The note with it: some cells print two values separated by a slash. The assay is classed as in vivo.
Assay [2] deals with PHA-L-stimulated PBMC. As to the kind of experiment: Proliferation of PHA-L-stimulated CFSE-labelled PBMC with or without exogenous IL-2. The following applies: cyclotides 4 μM, CsA 5 μg/mL, 3 day culture; for proliferation with exogenous IL-2: IL-2 10 U/mL. It counts as cell-based, human. How it is done: FIG. 13. Proliferation capacity of cyclotide-treated PBMC in the presence of exogenous IL-2. […] The cells were cultured without exogenous IL-2 (10 U/mL) (A and B) or in the presence of IL-2 (C and D). The CFSE-labelled cells were measured after a 3 day culture period by flow cytometry and representative data are presented in dot plots (A and C). Data are presented as mean and standard deviation (SD) of three independent experiments.
Following purification, PBMCs were equilibrated for 2 h at 37° C. […] This was followed by washing of each well with 100 μl PBS (centrifugation for 5 min, 1000 rpm, 20° C.) and re-suspending the cells in 100 μl medium for further assays.
Purified PBMCs (5*10^6 cells/ml) were incubated with […] of the fluorescent dye CFSE (5-carbofluoreszenein-ciacetat-succinylester) for 10 min at 37° C. The reaction was stopped using medium, cells were washed one time with medium by centrifugation (10 min, 300×g, 20° C.) and diluted with medium to 4*10^6 cells/ml.

Assay [3] has as its system Jurkat cells. Description: Ca2+ release, Fura-2. It counts as cell-based, human. The following applies: CsA, T20K 4 μM, V10K 4 μM. How it is done: (§1) FIG. 17. Ca^2+ release in human Jurkat and T-cells. Jurkat cells (A) and T-cells (B) 1×10^6 were loaded with 1 μM Fura-2 and 0.02% Puronic F-127 for 30 minutes at 37° C. Cells were centrifuged for 5 minutes at 1200 rpm and resuspended in media [RPMI 1640 with 10% FCS, penicillin (100 U/mL) and streptomycin ([…])]. 100 μL of cell suspension were transferred to a black 96-well plate with a clear flat-bottom. Briefly before analysis the fluorometer Synergy H4 (BioTek) was tempered to 37° C. The fluorescence time course was then measured with: extinction 340/380 nm and emission 510 nm in 30 seconds intervals, continuously shaking. Ca^2+ influx was initiated by adding compounds to the cells (illustrated by the arrow). To receive maximum Ca^2+ release cells were stimulated with PMA (50 ng/mL) and Ionomycin (500 ng/mL) and T-cells additionally with PHA-L (10 μg/mL). For lowest Ca^2+ levels, cells remained untreated.
(§2) Jurkat cells T-cells were treated as described for FIG. 17, supra.

Assay [4] relates to human primary T-cells. As to the kind of experiment: Ca2+ release, Fura-2. The assay is classed as cell-based. The note with it: T20K 4 μM. As for the experimental part: as §1, §2
The subject of assay [5] is EAE-induced C57BL/6J mice. Description: EAE in C57BL/6J mice treated with T20K, clinical score. The assay is classed as in vivo, mouse. As for the experimental part: FIG. 19. Effect on clinical EAE score. After induction of EAE, mice treated with T20K and naïve mice were scored every second day, starting at day 10.
Mice (n=10/group) were treated on day (−7), 0, 7 with 200 μg/100 μL/mouse T20K solubilized in sterile PBS intraperitoneally (i.p.), as indicated in the figure. On day 0 they were immunized subcutaneously with myelin oligodendrocyte glycoprotein (MOG35-55, 1 mg/mL) and complete Freud's adjuvant (CFA, 10 mg/mL) mixed at equal parts. Therefore 70 μL were injected into the left and right flank. Additionally mice received 100 μL pertussis toxin (2 μg/mL) i.p. on day 0 and again on day 2. Beginning at day 10 mice were scored every second day. Weight was also measured at day (−7), 0, 7 and on the same day during scoring.

Assay [6] has as its system splenic T-cells of naive mouse group. Description: Cytokine release of splenic T-cells of naive EAE mice treated in vitro, ELISA. The assay is classed as cell-based. The following applies: for IL2 release after 48 h incubation: V10K 4 μM, MOG35-55 30 μg/mL. How it is done: FIG. 22. Effect on cytokine release of ex vivo isolated PBMC at day 1 and 2. […] To approve this EAE TH bias towards TH17 and TH1 cells, IL4 release was again analyzed, but this TH2 cytokine was not detectable (I, J), as already indicated in (D).
Spleens of sacrificed mice were taken and transferred into a 6 cm Petri Dish with 5 mL sterile PBS. To receive a spleenocyte suspension, spleens were meshed and filtered through 70 μm nylon sieve. Cells were centrifuged at 1200 rpm for 5 minutes and resuspended in RPMI 1640 media supplemented with 10% fetal calf serum (FCS), 2 mM L-glutamine, penicillin (100 U/mL), and streptomycin (100 μg/mL). Spleenocytes were cultivated at a concentration of 3×10^6/mL in a 48-well flat-bottom plate (500 μL/well). Cells were stimulated with 30 μg/mL MOG35-55 or left untreated and incubated at 37° C. for three days. Supernatants and cells were taken stored at −20° C. until further experiments. […] After 12 hours MOG or T20K was added to appropriate wells. Supernatants were stored after 24 hours and after 48 hours at −20° C.
Supernatants of stimulated spleenocytes were analyzed for their IL2, IL17, INFγ, IL4 and IL22 cytokine release using anti-mouse antibodies for ELISA from eBioscience according to the manufacturer's instructions. The color reaction was evaluated at an optical density of 450 nm by the microplate reader Synergy H4 (BioTek).

For assay [7], the system named is NFATc1 in human T-cells. Description: Western blot for NFATc1. The assay is classed as cell-based. The following applies: CsA 5 μg/mL, T20K 4 μM; compared to V10K, PHA-L, PMA/Ionomycin. How it is done:
(§3) FIG. 23. Effect of cyclotides on protein expression of NFAT1c. […] But instead of stimulating with PHA-L and PMA/ionomycin, one part of the cells was stimulated with PHA-L (10 μg/mL) and the other with PMA (50 ng/mL)/ionomycin (500 ng/mL) over night. […] Splenic T-cells isolated from naïve mouse group were stimulated as described above.
(§4) Human T-cells provided by CCRI from A. Dohnal, PhD were stimulated according to the protocol for IL2 release described above. Stimulated cells were resuspended in TBS and mixed at equal parts with sample buffer and heated for five minutes at 95° C. A sodium dodecyl sulfate polyacrylamide gel was prepared to separate the proteins achieved from the lysed T-cells. After electrophoresis proteins were transferred from the gel to a membrane. After blocking the membrane with BSA 3% in TBST over night at 4° C., the first antibody mouse anti-NFATc1 was incubated for 2 hours at room temperature. After five times washing with TBST 0.1% Tween, the membrane was incubated with the second antibody anit-mouse IgG HRP for one hour at room temperature. The membrane was dried and treated with West Pico or West Femto Super Signal Solution according to the manufactures protocol to evaluate the chemo-luminescence signal.

In assay [8] the test system is NFATc1 in splenic T-cells of naive mouse group. As to the kind of experiment: Western blot for NFATc1. The assay is classed as cell-based. The following applies: compared to V10K and MOG. How it is done: as §3, §4
(In general: Immunoblotting shows a protein as a band on a membrane.)

We go through two compounds from patent publication US10357537B2, “Cyclotides as immunosuppressive agents” (priority 2011, dated 2019).

Where “and” joins values, the source holds several entries; their conditions need not be identical. Equal entries are not always repeated. Bridge positions count the residues as written; N and C are the ends. Peptide text beside a SMILES is read from it.

In the case of `CC(C)C[C@@H]1NC(=O)CNC(=O)[C@H](CC(N)=O)NC(=O)[C@H](CCCNC(=N)N)NC(=O)[C@H]([C@@H](C)O)NC(=O)[C@@H]2CSSC[C@@H]3NC(=O)[C@H]([C@@H](C)O)NC(=O)CNC(=O)CNC(=O)[C@H](C(C)C)NC(=O)[C@@H]4CSSC[C@H](NC(=O)[C@H](CCCCN)NC(=O)[C@H](CSSC[C@H](NC(=O)[C@H](C(C)C)NC(=O)[C@@H]5CCCN5C1=O)C(=O)NCC(=O)N[C@@H](CCC(=O)O)C(=O)N[C@@H]([C@@H](C)O)C(=O)N4)NC(=O)CNC(=O)[C@@H]1CCCN1C(=O)[C@H]([C@@H](C)O)NC(=O)[C@H](CC(N)=O)NC3=O)C(=O)N[C@@H](CO)C(=O)N[C@@H](Cc1c[nH]c3ccccc13)C(=O)N1CCC[C@H]1C(=O)N[C@@H](C(C)C)C(=O)N2` [Kalata T20K] (cyclo(CGETCVGGTCNTPGCKCSWPVCTRNGLPV); disulfide 1-15, 5-17, 10-22 (inferred); ring closure inferred), in assay [1], the “Relative activity in other assays (fold difference to kB1): nematocidal” value is 3.0 fold difference to kB1 and 2.6 fold difference to kB1. In assay [2], the “proliferation with exogenous IL-2” value was 91%±1.4 and the “proliferation as compared to the control cells, without exogenous IL-2” value is reported as 29%±24. Moreover, the “Ca2+ signaling in Jurkat cells” value in assay [3] is “did not induce a change in Ca^2+ signaling”. Besides, the “Ca2+ release in human primary T-cells” value in assay [4] is “increasing Ca^2+ release”. Further, the “clinical EAE score / symptoms” value in assay [5] (T20K 200 μg/100 μL/mouse i.p. on day -7, 0 or 7, vs naive group) was “delayed and minor symptoms of EAE”. In assay [5] (mice treated seven days before EAE induction, Dunnett's test), the “prophylactic effect on clinical EAE score” value is recorded as “demonstrate significantly the prophylactic effect”. Besides, in assay [6] (T20K 4 μM), the “IL17 production after 48 h” value is “inhibited” and the “IL2 release after 48 h incubation” value is given as “significantly inhibited”. Besides, the “IL2 inhibition after 24 h” value in assay [6] (T20K 4 μM compared with CsA 5 μg/mL) is given as “non-significant to the immune suppressive agent CsA”. Besides, the “INFγ and IL22 cytokine release” value in assay [6] (dependent on the cyclotide addition) is reported as “repressed significantly”. For the same compound, the “NFATc1 signal in human T-cells” value in assay [7] is listed as “reduced signal of NFATc1”. In addition, in assay [8], the “NFATc1 signal in mouse splenic T-cells” value is given as “reduced NFATc1 signal”.
Consider “kalata B1 mutant GLPVCGETCKGGTCNTPGCTCSWPVCTRN (SEQ ID No. 10) [Kalata V10K]”, for which the “Relative activity in other assays (fold difference to kB1): nematocidal” value in assay [1] is listed as <0.2 fold difference to kB1. Also, in assay [2], the “proliferation with exogenous IL-2” value is on record as “did not change the effect on proliferation” and the “proliferation as compared to the control cells, without exogenous IL-2” value is recorded as “no effect on the proliferation”. The “Ca2+ signaling in Jurkat cells” value in assay [3] is “did not induce a change in Ca^2+ signaling”. Further, in assay [6] (T20K 4 μM), the “IL2 release after 48 h incubation” value is on record as “shows a inhibitory capacity towards IL2 release”.
